From patent US20040167199A1, “Methods of using and compositions comprising (-)-3-(3,4-dimethoxy-phenyl)-3-(1-oxo-1,3-dihydro-isoindol-2-yl)-propionamide” (Celgene Corporation, priority 2002, published 2004)

Legend:
[1] = system: LPS-induced TNF-α production from human PBMC; experiment: LPS-induced TNF-α production from human PBMC; assay type: cell-based; settings: LPS 100 ng/ml, 18-20 hours, ELISA
Procedure: Lipopolysaccharide (LPS) is an endotoxin produced by gram-negative bacteria such as E. coli which induces production of many pro-inflammatory cytokines, including TNF-α In peripheral blood mononuclear cells (PBMC), the TNF-α produced in response to LPS is derived from monocytes, which comprise approximately 5-20% of the total PBMC. Compounds were tested for the ability to inhibit LPS-induced TNF-α production from human PBMC as previously described (Muller et al. 1996, J. Med Chem. 39:3238). PBMC from normal donors were obtained by Ficoll Hypaque (Pharmacia, Piscataway, N.J., USA) density centrifugation. Cells were cultured in RPMI (Life Technologies, Grand Island, N.Y., USA) supplemented with 10% AB± human serum (Gemini Bio-products, Woodland, Calif., USA), 2 mM L-glutamine, 100 U/ml penicillin, and 100 μg/ml streptomycin (Life Technologies).
PBMC (2×10^5 cells) were plated in 96-well flat-bottom Costar tissue culture plates (Coming, N.Y., USA) in triplicate. Cells were stimulated with LPS (Sigma, St. Louis, Mo., USA) at 100 ng/ml in the absence or presence of compounds. Compounds (Celgene Corp., Warren, N.J., USA) were dissolved in DMSO (Sigma) and further dilutions were done in culture medium immediately before use. The final DMSO concentration in all samples was 0.25%. Compounds were added to cells 1 hour before LPS stimulation. […]

human PDE2 = human PDE2 (Homo sapiens, UniProt O00408); experiment: PDE selectivity, single concentration, PDE2; assay type: biochemical
human PDE2, sequence (O00408 whole entry): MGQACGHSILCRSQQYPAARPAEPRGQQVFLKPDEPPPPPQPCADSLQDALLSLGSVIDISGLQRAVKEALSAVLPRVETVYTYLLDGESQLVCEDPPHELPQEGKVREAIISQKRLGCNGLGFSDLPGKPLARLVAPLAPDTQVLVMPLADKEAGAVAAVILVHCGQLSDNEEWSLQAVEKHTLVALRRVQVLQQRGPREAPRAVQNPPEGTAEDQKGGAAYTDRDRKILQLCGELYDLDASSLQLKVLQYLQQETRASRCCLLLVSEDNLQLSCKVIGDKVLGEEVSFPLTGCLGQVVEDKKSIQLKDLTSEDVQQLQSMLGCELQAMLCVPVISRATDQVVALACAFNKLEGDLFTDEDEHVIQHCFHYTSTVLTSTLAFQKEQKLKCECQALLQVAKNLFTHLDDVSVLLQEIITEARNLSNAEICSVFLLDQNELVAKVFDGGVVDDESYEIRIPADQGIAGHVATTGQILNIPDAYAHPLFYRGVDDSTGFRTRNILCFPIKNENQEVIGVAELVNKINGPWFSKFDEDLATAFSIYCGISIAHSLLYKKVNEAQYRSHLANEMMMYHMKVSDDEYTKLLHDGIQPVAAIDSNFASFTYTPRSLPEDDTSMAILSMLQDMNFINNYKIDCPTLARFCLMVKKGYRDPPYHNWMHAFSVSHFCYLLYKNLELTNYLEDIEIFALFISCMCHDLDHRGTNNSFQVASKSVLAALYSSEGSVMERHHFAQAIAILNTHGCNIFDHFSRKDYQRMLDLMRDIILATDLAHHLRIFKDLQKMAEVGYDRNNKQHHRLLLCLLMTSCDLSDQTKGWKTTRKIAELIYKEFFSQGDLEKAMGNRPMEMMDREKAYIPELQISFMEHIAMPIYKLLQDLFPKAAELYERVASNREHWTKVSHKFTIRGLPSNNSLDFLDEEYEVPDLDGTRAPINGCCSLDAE
Procedure: (§1) The specificity of compounds for specific PDE's was assessed by testing at a single concentration (100 μM) against bovine PDE1, human PDE2, PDE3, and PDE5 from human platelets (Hidaka and Asano 1976, Biochem. Biophys. Acta 429:485, and Nicholsen et al. 1991, Trends Pharmaco. Sci. 12:19).

[2] = system: IL-1β-induced TNF-α production from human PBMC; experiment: IL-1β-induced TNF-α production from human PBMC; assay type: cell-based; settings: recombinant human IL-1β 50 ng/ml, 18 hours
Procedure: During the course of inflammatory diseases, TNF-α production is often stimulated by the cytokine IL-1β, rather than by bacterially derived LPS. Compounds are tested for the ability to inhibit EL-1β-induced TNF-α production from human PBMC as described above for LPS-induced TNF-α production, except that the PBMC are isolated from source leukocyte units (Sera-Tec Biologicals, North Brunswick, N.J., USA) by centrifugation on Ficoll-Paque Plus (Amersham Pharmacia, Piscataway, N.J., USA), plated in 96-well tissue culture plates at 3×10^5 cells/well in RPMI-1640 medium (BioWhittaker, Walkersville, Md., USA) containing 10% heat-inactivated fetal bovine serum (Hyclone), 2 mM L-glutamine, 100 U/ml penicillin, and […] (complete medium), pretreated with compounds at 10, 2, 0.4, 0.08, 0.016, 0.0032, 0.00064, and 0 μM in duplicate at a final DMSO concentration of 0.1% at 37° C. in a humidified incubator at 5% CO2 for 1 hour, then stimulated with 50 ng/ml recombinant human IL-1β (Endogen) for 18 hours.

[3] = target: T1, PDE5 from human platelets (Homo sapiens, UniProt O76074); experiment: PDE selectivity, single concentration, PDE5; assay type: biochemical; settings: for PDE Specificity Ratio PDE5/PDE4: from above data; for inhibition at 100 µM: read-out: PDE5 (% inhib at 100 μM)
T1 construct: PDE3, and PDE5 from human platelets; from tissue; host or cells: human platelets
Procedure: as §1

bovine PDE1 = experiment: PDE selectivity, single concentration, PDE1; assay type: biochemical; settings: for PDE Specificity Ratio PDE1/PDE4: from above data
Procedure: as §1

[4] = system: PDE3 from human platelets; experiment: PDE selectivity, single concentration, PDE3; assay type: biochemical; settings: for PDE Specificity Ratio PDE3/PDE4: from above data
Procedure: as §1

[5] = system: PDE4 enzyme purified from U937 human monocytic cells; experiment: PDE4 inhibition (enzyme purified from U937 cells); assay type: biochemical; settings: 1 μM cAMP, 30 min at 30° C.
Procedure: PDE4 enzyme was purified from U937 human monocytic cells by gel filtration chromatography as previously described (Muller et al. 1998, Bioorg. & Med Chem Lett 8:2669-2674). Phosphodiesterase reactions were carried out in 50 mM Tris HCl pH 7.5, 5 mM MgCl2, 1 μM cAMP, 10 nM [^311)-cAMP for 30 min at 30° C., terminated by boiling, treated with 1 mg/ml snake venom, and separated using AG-IXS ion exchange resin (BioRad) as described (Muller et al. 1998, Bioorg. & Med Chem Lett 8:2669-2674). Reactions consumed less than 15% of available substrate.

[6] = Pharmacokinetics after oral administration in female rats; settings: rat, in vivo, 80 mg/kg oral in aqueous CMC
Text: Table III presents plasma concentration data (ng/mL) taken at 0.5 hr., 1 hr., 2 hrs., 4 hrs., 7 hrs., 10 hrs. and 24 hrs. following the administration, Cmax, Tmax and AUC.

Compound	IC50 [1] [µM]	IC50 [2] [µM]	PDE Specificity Ratio PDE5/PDE4 [3] [fold]	inhibition at 100 µM [3] [%]	PDE1 (% inhib at 100 μM) (bovine PDE1) [%]	PDE Specificity Ratio PDE1/PDE4 (bovine PDE1)	PDE3 (% inhib at 100 μM) [4] [%]	PDE Specificity Ratio PDE3/PDE4 [4]	IC50 [5] [µM]	also measured
COc1ccc(C(CC(N)=O)N2Cc3ccccc3C2=O)cc1OC (single isomer, unassigned; (+)) [Compound B, (+)-3-(3,4-dimethoxy-phenyl)-3-(1-oxo-1,3-dihydro-isoindol-2-yl)-propionamide]	100	86	>1	5	47	˜1 fold	50	˜1 fold	67	PDE Specificity Ratio PDE2/PDE4 (human PDE2; from above data): >1 fold; inhibition at 100 µM (human PDE2; read-out: PDE2 (% inhib at 100 μM)): 22%
COc1ccc(C(CC(N)=O)N2Cc3ccccc3C2=O)cc1OC (racemic) [Racemic Compound, 3-(3,4-dimethoxy-phenyl)-3-(1-oxo-1,3-dihydro-isoindol-2-yl)-propionamide]	21	16	>4.8	14	20	>4.8 fold	51	˜4.8 fold	15	concentration at 0 h ([6]; 0 hour, read-out: plasma concentration): 0 ng/mL; AUC [6]: 44200 ng·h/mL; Cmax [6]: 4910 ng/mL; Tmax [6]: 2 h; concentration at 0.5 h ([6]; 0.5 hour, read-out: plasma concentration): 3900 ng/mL; concentration at 1 h ([6]; 1 hour, read-out: plasma concentration): 4600 ng/mL; concentration at 2 h ([6]; 2 hours, read-out: plasma concentration): 4120 ng/mL; concentration at 4 h ([6]; 4 hours, read-out: plasma concentration): 2980 ng/mL; concentration at 7 h ([6]; 7 hours, read-out: plasma concentration): 2520 ng/mL; concentration at 10 h ([6]; 10 hours, read-out: plasma concentration): 2060 ng/mL; concentration at 24 h ([6]; 24 hours, read-out: plasma concentration): 9.2 ng/mL
